# Reference: US7977366B2, “Treating an inflammatory disorder or inhibiting respiratory burst in adherent neutrophils with chemical inhibitors of neutrophil activation” (Cornell Research Foundation, Inc., priority 2003, dated 2011)
# Test system: p47phox
# Experiment: Translocation of p47phox subunit to the cell membrane (western blot of membrane fraction)
# Assay type: cell-based, human
# Settings: TNF or PMA stimulation
# From the text: In an attempt to identify specific steps of the biochemical pathway(s) that are influenced by Comp II, the effect on translocation of phagocyte oxidase (Phox) translocation was examined. Phox is a multi-subunit enzyme complex that generates H2O2 upon activation. Activation of Phox requires an assembly of both membrane associated and cytosolic subunits at the plasma or phagosomal membrane as well as phosphorylation of several subunits. The cytochrome b559 (also known as b558) components of phox (gp91 and gp22) are localized on the membranes of specific granules (Bjerrum et al, “Dual Granule Localization of the Dormant NADPH Oxidase and Cytochrome b559 in Human Neutrophils,” Eur J Haematol 43(1): 67-77 (1989), which is hereby incorporated by reference in its entirety), and recruitment of these subunits to the membrane occurs simultaneously with degranulation. […] The influence of Comp II on the translocation of p47phox subunit, one of the components of NADPH oxidase, to the cell membrane, was examined as follows.
# Neutrophil lysates were prepared as above with 2.5% TritonX-100 lysis buffer (final concentration of 1% TritonX-100 after dilution in plate with residual KRPG). The cell lysate was passed through 26-gauge needle six times to shear DNA and centrifuged at 20,000×g for 15 min to remove cell debris and DNA. […]
compound,measurement,value
"O=C1CC(c2ccccc2)=NN1c1cccc(Cl)c1 [Comp II, 2-(3-Chloro-phenyl)-5-phenyl-2,4-dihydro-pyrazol-3-one]",activation triggered translocation of phox 47 to the membrane,not inhibited
